In US20230114728A1 (Venatorx Pharmaceuticals, Inc., priority 2019, published 2023):
Converted amounts (≈) assume the structure as drawn.

Experiments:
Assay type in all cases: cell-based
[1] = test system: A. baumannii ATCC 19606; assay: Broth microdilution MIC in CAMHB; details: Acinetobacter baumannii, ATCC19606; MHB; read-out: Minimum Inhibitory Concentration, A. baumannii ATCC 19606
Method in brief: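 Lowest compound concentration with no visible growth after 16-20 h at 37 °C defines MIC. Plates of 2-fold serial dilutions in cation-adjusted Mueller Hinton broth received 2-8×10^5 CFU/mL of exponentially grown cells, per CLSI methods; panel spans reference, hyper-permeable and efflux-pump-deleted strains.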

[2] = test system: E. coli 901C; assay: Broth microdilution MIC in CAMHB; details: Escherichia coli; E. coli 901C (hyper-permeable); MHB; read-out: Minimum Inhibitory Concentration, E. coli 901C
Method in brief: (§1)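 CLSI microdilution; CAMHB; inoculum 2-8×10^5 CFU/mL from 3-5 h 37° C culture; 2-fold compound series; 16-20 h, 37° C; MIC = lowest well without visible growth.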

[3] = test system: K. pneumoniae UMM producing SHV-5 and KPC-2; assay: Broth microdilution MIC in CAMHB; details: Klebsiella pneumoniae, read-out: Minimum Inhibitory Concentration, K. pneumoniae UMM
Method in brief: as §1

[4] = test system: P. aeruginosa (ΔmexAB-oprM); assay: Broth microdilution MIC in CAMHB; details: Pseudomonas aeruginosa, read-out: Minimum Inhibitory Concentration, P. aeruginosa ΔmexAB-OprM
Method in brief: as §1

[5] = test system: N. gonorrhoeae ATCC 49226; assay: Liquid broth MIC in Fastidious broth; details: Neisseria gonorrhoeae, ATCC49226; N. gonorrhoeae strain ATCC 49226; Fastidious broth; read-out: Minimum Inhibitory Concentration, N. gonorrhoeae ATCC 49226
Method in brief: (§2)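 Colonies were swabbed from chocolate agar after 24 h growth and standardised by optical density at 600 nm. Compounds were serially diluted twofold in Fastidious broth, and bacteria added to give 5×10^5 CFU/mL. After about 24 h at 36 °C in 5% CO2, the lowest concentration allowing under 10% growth was taken as MIC.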

[6] = test system: N. gonorrhoeae FA1090; assay: Liquid broth MIC in Fastidious broth; details: Neisseria gonorrhoeae; N. gonorrhoeae strain FA1090; Fastidious broth; read-out: Minimum Inhibitory Concentration, N. gonorrhoeae FA1090
Method in brief: as §2

[7] = test system: N. gonorrhoeae H041; assay: Liquid broth MIC in Fastidious broth; details: Neisseria gonorrhoeae, H041, read-out: Minimum Inhibitory Concentration, N. gonorrhoeae H041
Method in brief: (§3)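 Strains bearing mosaic PBP2 grown 24 h on chocolate agar (36° C, 5% CO2), suspended in saline and added to 2-fold compound dilutions in Fastidious broth at 5×10^5 CFU/mL. After ~24 hours at 36° C with 5% CO2, MIC taken visually as lowest well with <10% growth relative to full growth.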

[8] = test system: N. gonorrhoeae WHO G; assay: Liquid broth MIC in Fastidious broth; details: Neisseria gonorrhoeae; N. gonorrhoeae strain WHO G; Fastidious broth; read-out: Minimum Inhibitory Concentration, N. gonorrhoeae WHO G
Method in brief: as §2

[9] = test system: N. gonorrhoeae WHO K; assay: Liquid broth MIC in Fastidious broth; details: Neisseria gonorrhoeae, read-out: Minimum Inhibitory Concentration, N. gonorrhoeae WHO K
Method in brief: as §3

[10] = test system: N. gonorrhoeae WHO L; assay: Liquid broth MIC in Fastidious broth; details: Neisseria gonorrhoeae; N. gonorrhoeae strain WHO L; Fastidious broth; read-out: Minimum Inhibitory Concentration, N. gonorrhoeae WHO L
Method in brief: as §2

[11] = test system: N. gonorrhoeae WHO Q; assay: Liquid broth MIC in Fastidious broth; details: Neisseria gonorrhoeae, read-out: Minimum Inhibitory Concentration, N. gonorrhoeae WHO Q
Method in brief: as §3

[12] = test system: N. gonorrhoeae WHO Z; assay: Liquid broth MIC in Fastidious broth; details: Neisseria gonorrhoeae, read-out: Minimum Inhibitory Concentration, N. gonorrhoeae WHO Z
Method in brief: as §3

| SMILES | MIC [1] [µg/mL] | MIC [2] [µg/mL] | MIC [3] [µg/mL] | MIC [4] [µg/mL] | MIC [5] [µg/mL] | MIC [6] [µg/mL] | MIC [7] [µg/mL] | MIC [8] [µg/mL] | MIC [9] [µg/mL] | MIC [10] [µg/mL] | MIC [11] [µg/mL] | MIC [12] [µg/mL] |
| --- | --- | --- | --- | --- | --- | --- | --- | --- | --- | --- | --- | --- |
| CCN1CCN(C(=O)N[C@@H](C(=O)N[C@H]2Cc3cccc(C(=O)O)c3OB2O)c2c(O)cc(O)cc2F)C(=O)C1=O (single isomer, unassigned) [Example 182] | 32 to 64 (≈ 57.3 to 115 µM) | < 0.25 | 8 to 16 (≈ 14.3 to 28.7 µM) | 8 to 16 (≈ 14.3 to 28.7 µM) | 4 to 8 (≈ 7.16 to 14.3 µM) | < 0.125 | > 64 | 1 to 2 (≈ 1.79 to 3.58 µM) | 16 to 32 (≈ 28.7 to 57.3 µM) | 16 to 32 (≈ 28.7 to 57.3 µM) | 16 to 32 (≈ 28.7 to 57.3 µM) | 16 to 32 (≈ 28.7 to 57.3 µM) |
| NCCN1CCN(C(=O)N[C@@H](C(=O)N[C@H]2Cc3cccc(C(=O)O)c3OB2O)c2ccc(O)c(Cl)c2F)C(=O)C1=O (single isomer, unassigned) [Example 186] | > 128 | 0.5 to 1 (≈ 0.845 to 1.69 µM) | 32 to 64 (≈ 54.1 to 108 µM) | 8 to 16 (≈ 13.5 to 27 µM) | 16 to 32 (≈ 27 to 54.1 µM) | 0.25 to 0.5 (≈ 0.422 to 0.845 µM) | > 64 | 4 to 8 (≈ 6.76 to 13.5 µM) | > 64 | > 64 | > 64 | > 64 |
| NCCN1CCN(C(=O)N[C@H](C(=O)N[C@H]2Cc3cccc(C(=O)O)c3OB2O)c2ccc(O)c(Cl)c2F)C(=O)C1=O (single isomer, unassigned) [Example 187] | > 128 | 2 to 4 (≈ 3.38 to 6.76 µM) | > 128 | 32 to 64 (≈ 54.1 to 108 µM) | > 64 | 4 to 8 (≈ 6.76 to 13.5 µM) | > 64 | > 64 | > 64 | > 64 | > 64 | > 64 |
| CS(=O)(=O)N1CCN(C(=O)N[C@@H](C(=O)N[C@H]2Cc3ccc(F)c(C(=O)O)c3OB2O)c2cc(F)c(O)c(O)c2Cl)C1=O (single isomer, unassigned) [Example 189] | 0.5 to 1 (≈ 0.79 to 1.58 µM) | 0.5 to 1 (≈ 0.79 to 1.58 µM) | > 128 | 8 to 16 (≈ 12.6 to 25.3 µM) | 16 to 32 (≈ 25.3 to 50.6 µM) | 4 to 8 (≈ 6.32 to 12.6 µM) | > 64 | 16 to 32 (≈ 25.3 to 50.6 µM) | 16 to 32 (≈ 25.3 to 50.6 µM) | > 64 | 16 to 32 (≈ 25.3 to 50.6 µM) | 16 to 32 (≈ 25.3 to 50.6 µM) |
| NCCN1CCN(C(=O)N[C@@H](C(=O)N[C@H]2Cc3cccc(C(=O)O)c3OB2O)c2c(O)cc(O)cc2F)C(=O)C1=O (single isomer, unassigned) [Example 194] | 32 to 64 (≈ 55.8 to 112 µM) | 0.5 to 1 (≈ 0.872 to 1.74 µM) | 8 to 16 (≈ 14 to 27.9 µM) | 8 to 16 (≈ 14 to 27.9 µM) | 16 to 32 (≈ 27.9 to 55.8 µM) | 1 to 2 (≈ 1.74 to 3.49 µM) | > 64 | 4 to 8 (≈ 6.98 to 14 µM) | > 64 | > 64 | > 64 | > 64 |
| NCCCN1CCN(C(=O)N[C@@H](C(=O)N[C@H]2Cc3cccc(C(=O)O)c3OB2O)c2c(O)cc(O)cc2F)C(=O)C1=O (single isomer, unassigned) [Example 195] | 32 to 64 (≈ 54.5 to 109 µM) | 0.5 to 1 (≈ 0.851 to 1.7 µM) | 8 to 16 (≈ 13.6 to 27.2 µM) | 8 to 16 (≈ 13.6 to 27.2 µM) | 16 to 32 (≈ 27.2 to 54.5 µM) | 1 to 2 (≈ 1.7 to 3.41 µM) | > 64 | 4 to 8 (≈ 6.81 to 13.6 µM) | > 64 | > 64 | > 64 | > 64 |
| NCCN1CCN(C(=O)N[C@@H](C(=O)N[C@H]2Cc3cccc(C(=O)O)c3OB2O)c2ccc(O)c([N+](=O)[O-])c2)C(=O)C1=O (single isomer, unassigned) [Example 199] | > 128 | 0.5 to 1 (≈ 0.856 to 1.71 µM) | > 128 | 8 to 16 (≈ 13.7 to 27.4 µM) | 16 to 32 (≈ 27.4 to 54.8 µM) | 1 to 2 (≈ 1.71 to 3.42 µM) | > 64 | 16 to 32 (≈ 27.4 to 54.8 µM) | > 64 | > 64 | > 64 | > 64 |
